Source: publication PMC4503722, “Novel Phenotypic Outcomes Identified for a Public Collection of Approved Drugs from a Publicly Accessible Panel of Assays” (PLoS ONE, 2015)
Read-outs that look alike come from different tables or passages of the source.

Legend:
[1] = test system: HeLa cells; assay: cells; format: cell-based; settings: for EC50: Homo sapiens, HeLa, read-out: CellCycle G2/M;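 as to Hela CellCycMod PI 4N summarized IC50: value tracks stimulation of 4N DNA content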
[2] = molecular target: T1, hp70S6K1 (RPS6KB1) (Homo sapiens, UniProt P23443); assay: Cerep LANCE kinase assay hp70S6K1 (S1 assay 31); format: biochemical
T1 construct: purchased Cerep (LANCE kinase assay platform, contract assay)

[3] = test system: HCT116; assay: cells; format: cell-based
[4] = molecular target: T2, hFLT3 (Homo sapiens, UniProt P36888); assay: Cerep LANCE kinase assay hFLT3 (S1 assay 35); format: biochemical
T2 construct: purchased Cerep (LANCE kinase assay platform, contract assay)

[5] = test system: INS-1E cells; assay: cells; format: cell-based, rat; settings: Rattus norvegicus, INS-1E
[6] = test system: SW480; assay: cells; format: cell-based
[7] = test system: NCI-H716 cells; assay: cells; format: cell-based, Human; settings: Homo sapiens
[8] = molecular target: T3, hKDR (Homo sapiens, UniProt P35968); assay: Cerep LANCE kinase assay hKDR (S1 assay 32); format: biochemical
T3 construct: purchased Cerep (LANCE kinase assay platform, contract assay)

[9] = test system: endothelial tube formation in co-cultures of ECFCs and ADSCs treated with VEGF; assay: cells; format: cell-based, human
[10] = test system: HCT116 cells treated with a GSK3β inhibitor; assay: cells; format: cell-based
[11] = molecular target: T4, hGSK3b (Homo sapiens, UniProt P49841); assay: Cerep LANCE kinase assay hGSK3b (S1 assay 34); format: biochemical
T4 construct: purchased Cerep (LANCE kinase assay platform, contract assay)

[12] = molecular target: T5, hJAK2 (Homo sapiens, UniProt O60674); assay: Cerep LANCE kinase assay hJAK2 (S1 assay 33); format: biochemical
T5 construct: purchased Cerep (LANCE kinase assay platform, contract assay)

[13] = test system: DLD-1; assay: cells; format: cell-based
[14] = test system: RKO; assay: cells; format: cell-based
[15] = test system: Colo320; assay: cells; format: cell-based
[16] = test system: HT-29; assay: cells; format: cell-based
[17] = test system: SNU-C1; assay: cells; format: cell-based
[18] = test system: ECFC/ADSC co-culture cell nuclei number
[19] = test system: nuclear β-catenin in C2C12 cells; assay: cells; format: cell-based; settings: Mus musculus, C2C12, read-out: Wnt Pathway
[20] = Homo sapiens, HCT-116, read-out: GSK3b inh pretreated_Viability ATP HCT116
[21] = Homo sapiens, HCT-116, read-out: Basal_Viability ATP HCT116
[22] = Homo sapiens, SW480, read-out: Basal_Viability ATP SW480
[23] = Homo sapiens, DLD-1, read-out: Basal_Viability ATP DLD-1

T5 sequence (O60674 whole entry): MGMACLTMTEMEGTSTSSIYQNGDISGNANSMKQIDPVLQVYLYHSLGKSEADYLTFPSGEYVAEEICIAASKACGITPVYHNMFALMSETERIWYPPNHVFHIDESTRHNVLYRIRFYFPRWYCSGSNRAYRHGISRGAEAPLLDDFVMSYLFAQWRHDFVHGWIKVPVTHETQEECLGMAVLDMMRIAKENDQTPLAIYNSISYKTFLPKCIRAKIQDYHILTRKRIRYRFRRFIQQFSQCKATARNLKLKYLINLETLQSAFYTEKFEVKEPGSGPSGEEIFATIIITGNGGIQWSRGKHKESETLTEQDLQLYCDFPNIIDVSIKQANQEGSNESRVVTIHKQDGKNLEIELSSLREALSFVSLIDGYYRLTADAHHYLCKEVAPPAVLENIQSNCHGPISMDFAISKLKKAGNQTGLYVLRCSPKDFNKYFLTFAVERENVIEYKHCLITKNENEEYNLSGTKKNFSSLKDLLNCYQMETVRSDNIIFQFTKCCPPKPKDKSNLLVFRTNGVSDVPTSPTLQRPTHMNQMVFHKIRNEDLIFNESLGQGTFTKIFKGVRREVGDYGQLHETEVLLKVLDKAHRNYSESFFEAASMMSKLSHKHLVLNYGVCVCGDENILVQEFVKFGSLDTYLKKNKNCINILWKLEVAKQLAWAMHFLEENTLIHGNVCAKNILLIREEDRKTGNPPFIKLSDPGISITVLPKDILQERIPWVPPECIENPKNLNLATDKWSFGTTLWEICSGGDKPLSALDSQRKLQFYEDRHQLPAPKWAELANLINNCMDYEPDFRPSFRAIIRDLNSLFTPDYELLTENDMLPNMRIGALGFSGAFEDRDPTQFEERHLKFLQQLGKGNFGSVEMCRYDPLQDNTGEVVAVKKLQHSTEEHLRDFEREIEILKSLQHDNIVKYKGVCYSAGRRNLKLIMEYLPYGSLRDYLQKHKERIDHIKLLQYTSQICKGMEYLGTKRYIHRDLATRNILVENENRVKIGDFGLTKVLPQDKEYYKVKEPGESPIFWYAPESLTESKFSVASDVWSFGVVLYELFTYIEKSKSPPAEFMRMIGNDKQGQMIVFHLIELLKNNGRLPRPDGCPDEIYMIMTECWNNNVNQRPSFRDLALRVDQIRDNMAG
T4 sequence (P49841 whole entry): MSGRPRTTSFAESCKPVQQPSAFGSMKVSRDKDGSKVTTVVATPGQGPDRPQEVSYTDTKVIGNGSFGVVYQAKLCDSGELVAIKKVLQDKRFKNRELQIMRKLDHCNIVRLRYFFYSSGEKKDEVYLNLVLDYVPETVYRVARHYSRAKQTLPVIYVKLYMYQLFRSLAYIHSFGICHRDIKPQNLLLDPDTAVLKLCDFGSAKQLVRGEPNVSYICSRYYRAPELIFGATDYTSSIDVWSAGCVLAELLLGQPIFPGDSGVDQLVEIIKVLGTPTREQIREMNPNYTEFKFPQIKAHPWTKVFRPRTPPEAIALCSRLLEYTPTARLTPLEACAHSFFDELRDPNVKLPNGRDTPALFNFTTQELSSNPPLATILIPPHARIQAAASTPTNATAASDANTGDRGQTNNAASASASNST
T2 sequence (P36888 27-993): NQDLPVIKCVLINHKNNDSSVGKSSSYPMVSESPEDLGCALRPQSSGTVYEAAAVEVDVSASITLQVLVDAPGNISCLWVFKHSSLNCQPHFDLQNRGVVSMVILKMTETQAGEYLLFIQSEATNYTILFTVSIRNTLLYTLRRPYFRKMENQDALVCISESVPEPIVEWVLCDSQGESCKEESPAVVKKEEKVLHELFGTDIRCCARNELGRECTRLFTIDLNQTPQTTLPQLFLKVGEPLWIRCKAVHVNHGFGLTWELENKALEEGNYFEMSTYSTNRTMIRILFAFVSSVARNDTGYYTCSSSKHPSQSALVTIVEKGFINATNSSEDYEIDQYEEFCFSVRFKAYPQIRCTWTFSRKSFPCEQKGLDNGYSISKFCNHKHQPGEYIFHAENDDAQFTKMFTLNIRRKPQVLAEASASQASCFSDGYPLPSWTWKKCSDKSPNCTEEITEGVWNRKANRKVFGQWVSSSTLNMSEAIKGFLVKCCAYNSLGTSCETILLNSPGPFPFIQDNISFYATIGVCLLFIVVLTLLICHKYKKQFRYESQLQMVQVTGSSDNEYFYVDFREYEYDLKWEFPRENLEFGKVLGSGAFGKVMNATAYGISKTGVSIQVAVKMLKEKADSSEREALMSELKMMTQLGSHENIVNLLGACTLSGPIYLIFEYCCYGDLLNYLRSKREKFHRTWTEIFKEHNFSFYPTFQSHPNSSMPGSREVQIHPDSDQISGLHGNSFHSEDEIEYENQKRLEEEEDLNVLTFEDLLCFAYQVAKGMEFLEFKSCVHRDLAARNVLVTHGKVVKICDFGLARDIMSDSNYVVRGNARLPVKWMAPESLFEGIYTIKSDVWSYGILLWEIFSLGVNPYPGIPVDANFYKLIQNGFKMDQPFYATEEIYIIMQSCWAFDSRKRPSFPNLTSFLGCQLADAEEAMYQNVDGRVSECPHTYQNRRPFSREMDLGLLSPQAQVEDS
T3 sequence (P35968 20-1356): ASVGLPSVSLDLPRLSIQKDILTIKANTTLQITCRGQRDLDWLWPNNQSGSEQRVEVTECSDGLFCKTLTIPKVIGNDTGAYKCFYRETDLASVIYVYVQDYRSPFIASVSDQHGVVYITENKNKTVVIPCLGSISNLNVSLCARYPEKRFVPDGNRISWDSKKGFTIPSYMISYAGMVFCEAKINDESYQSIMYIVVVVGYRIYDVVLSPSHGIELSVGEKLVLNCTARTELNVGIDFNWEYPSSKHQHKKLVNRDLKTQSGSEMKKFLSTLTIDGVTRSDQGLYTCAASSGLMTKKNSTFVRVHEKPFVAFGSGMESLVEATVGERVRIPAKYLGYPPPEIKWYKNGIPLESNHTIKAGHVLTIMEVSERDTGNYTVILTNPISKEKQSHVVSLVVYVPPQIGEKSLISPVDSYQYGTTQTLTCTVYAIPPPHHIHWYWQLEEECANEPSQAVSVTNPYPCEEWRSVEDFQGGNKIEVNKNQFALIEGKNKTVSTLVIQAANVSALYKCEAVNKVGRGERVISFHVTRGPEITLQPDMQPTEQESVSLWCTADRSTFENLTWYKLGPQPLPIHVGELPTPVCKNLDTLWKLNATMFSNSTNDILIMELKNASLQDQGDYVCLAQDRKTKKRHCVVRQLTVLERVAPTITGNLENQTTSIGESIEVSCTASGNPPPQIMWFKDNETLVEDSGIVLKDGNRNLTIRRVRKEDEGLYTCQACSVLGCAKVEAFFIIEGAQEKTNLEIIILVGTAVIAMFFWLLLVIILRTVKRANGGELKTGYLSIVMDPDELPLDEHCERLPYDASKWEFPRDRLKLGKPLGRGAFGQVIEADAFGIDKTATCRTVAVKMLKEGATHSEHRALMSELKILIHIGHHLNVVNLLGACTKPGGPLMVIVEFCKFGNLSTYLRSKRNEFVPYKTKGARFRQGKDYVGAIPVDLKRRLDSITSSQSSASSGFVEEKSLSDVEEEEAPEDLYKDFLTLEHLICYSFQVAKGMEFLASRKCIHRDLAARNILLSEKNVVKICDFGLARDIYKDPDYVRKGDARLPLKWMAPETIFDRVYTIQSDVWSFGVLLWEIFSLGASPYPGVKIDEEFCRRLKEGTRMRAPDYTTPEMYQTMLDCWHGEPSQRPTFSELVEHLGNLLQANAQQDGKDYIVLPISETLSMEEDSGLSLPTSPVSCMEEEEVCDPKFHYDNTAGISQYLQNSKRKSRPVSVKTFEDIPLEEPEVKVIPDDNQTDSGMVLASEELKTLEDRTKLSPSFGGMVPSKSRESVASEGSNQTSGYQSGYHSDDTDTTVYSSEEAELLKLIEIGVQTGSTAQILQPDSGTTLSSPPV
T1 sequence (P23443 whole entry): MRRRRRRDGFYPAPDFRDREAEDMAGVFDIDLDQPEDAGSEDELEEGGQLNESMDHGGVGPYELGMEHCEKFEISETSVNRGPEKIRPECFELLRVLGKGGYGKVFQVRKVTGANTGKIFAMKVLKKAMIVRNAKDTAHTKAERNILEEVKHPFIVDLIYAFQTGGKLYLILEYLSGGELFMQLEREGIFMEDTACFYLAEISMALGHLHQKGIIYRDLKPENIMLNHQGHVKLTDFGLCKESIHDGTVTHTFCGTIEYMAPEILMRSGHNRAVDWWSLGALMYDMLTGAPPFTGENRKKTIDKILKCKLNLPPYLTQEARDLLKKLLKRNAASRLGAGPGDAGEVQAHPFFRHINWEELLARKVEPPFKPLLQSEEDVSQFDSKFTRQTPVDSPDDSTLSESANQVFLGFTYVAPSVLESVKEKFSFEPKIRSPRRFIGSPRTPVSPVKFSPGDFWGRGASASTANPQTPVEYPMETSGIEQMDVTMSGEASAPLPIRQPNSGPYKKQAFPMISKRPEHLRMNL

With `COc1ccc(-c2nc3ccc(C4=NNC(=O)CC4C)cc3[nH]2)cc1` (stereo not shown) [Pimobendan] the EC50 ([1]; IC50 / EC50) was over 10000 nM, the IC50 ([2]; read-out: p70S6K1) was over 20000 nM and the IC50 ([3]; Homo sapiens, HCT-116, basal, read-out: Basal_Viability ATP HCT116) was 16000 nM. For the same compound, the IC50 ([4]; read-out: FLT3) was 5130 nM, the EC50 ([5]; IC50 / EC50, read-out: Insulin Secretion) was over 10000 nM and the IC50 ([6]; Homo sapiens, SW480, basal, read-out: Basal_Viability ATP SW480) was over 20000 nM. It also gave an EC50 ([7]; IC50 / EC50, NCI-H716, read-out: GLP 1 Secretion) of over 10000 nM, an IC50 ([8]; read-out: KDR) of over 20000 nM and an IC50 ([9]; Homo sapiens, IC50 / EC50, endothelial tube area, ADSC/ECFC co-culture, read-out: Anti-Angiogenesis) of 2890 nM. It also gave an IC50 [10, 20] of over 20000 nM, an IC50 ([11]; read-out: GSK3b) of over 20000 nM and an IC50 ([12]; read-out: JAK2) of over 20000 nM. The IC50 ([13]; Homo sapiens, DLD-1, basal, read-out: Basal_Viability ATP DLD-1) was over 20000 nM.

`CC(C)C[C@H](NC(=O)[C@H](Cc1ccccc1)NC(=O)c1cnccn1)B(O)O` [bortezomib, reference compound] gave an EC50 [1] of over 10000 nM, an IC50 ([2]; read-out: p70S6K1) of over 20000 nM and an IC50 ([3]; Homo sapiens, HCT-116, 72 h, read-out: HCT-116 viab. IC50) of 4 nM. It also gave an IC50 [3, 21] of 3.65 nM, an IC50 ([4]; read-out: FLT3) of over 20000 nM and an EC50 ([5]; read-out: Ins. sec. EC50) of over 10000 nM. For the same compound, the IC50 ([14]; Homo sapiens, RKO, 72 h, read-out: RKO viab. IC50) was 8 nM, the IC50 ([14]; Homo sapiens, RKO, read-out: Basal_Viability ATP RKO) was 8.1 nM and the IC50 ([6]; Homo sapiens, SW480, 72 h, read-out: SW480 viab. IC50) was 5 nM. For the same compound, the IC50 [6, 22] was 5.13 nM, the IC50 ([15]; Homo sapiens, COLO 320, 72 h, read-out: Colo320 viab. IC50) was 2800 nM and the EC50 ([7]; NCI-H716, read-out: GLP1 sec. EC50) was over 10000 nM. The IC50 ([8]; read-out: KDR) was over 20000 nM, the IC50 ([10]; Homo sapiens, HCT-116, 72 h, read-out: HCT-116 (GSK3β) viab. IC50) was 2 nM and the IC50 [10, 20] was 2.41 nM. For the same compound, the IC50 ([11]; read-out: GSK3b) was over 20000 nM, the IC50 ([12]; read-out: JAK2) was over 20000 nM and the IC50 ([16]; Homo sapiens, HT-29, 72 h, read-out: HT-29 viab. IC50) was 3 nM. For the same compound, the IC50 ([16]; Homo sapiens, HT-29, read-out: Basal_Viability ATP HT-29) was 3.15 nM, the IC50 ([17]; Homo sapiens, SNU-C1, 72 h, read-out: SNU-C1 viab. IC50) was 3 nM and the IC50 ([17]; Homo sapiens, SNU-C1, read-out: Basal_Viability ATP SNU-C1) was 3.2 nM. It also gave an IC50 ([13]; Homo sapiens, DLD-1, 72 h, read-out: DLD-1 viab. IC50) of 6 nM and an IC50 [13, 23] of 6.36 nM.

In the case of `O=C(O)c1ccc(-n2nc(-c3ccccc3O)nc2-c2ccccc2O)cc1` [NCGC00263572-01], the “VEGF_ADSC\ECFC Angio Hoechst NucArea IC50/EC50” value [18] is reported as over 10000 nM, the “Hela CellCycMod PI 2N IC50/EC50” value ([1]; assay number 14, 2N) is reported as over 10000 nM and the “Hela CellCycMod PI 4N IC50/EC50” value ([1]; assay number 16, 4N) is reported as over 10000 nM. The “Hela CellCycMod PI MI IC50/EC50” value ([1]; assay number 17, MI) was over 10000 nM, the “Hela CellCycMod PI Cell Number IC50/EC50” value ([1]; assay number 18, cell number) was 5678 nM and the “hp70S6K1 LANCE IC50/EC50” value ([2]; assay number 31) was over 20000 nM. For the same compound, the “Basal_Viability ATP HCT116 IC50/EC50” value ([3]; assay number 25, basal) was 437.6 nM, the “hFLT3 LANCE IC50/EC50” value ([4]; assay number 35) was over 20000 nM and the “Basal_Viability ATP RKO IC50/EC50” value ([14]; assay number 29) was 100.1 nM. The “Basal_Viability ATP SW480 IC50/EC50” value ([6]; assay number 24) was 77.6 nM, the “Basal_Viability ATP Colo 320 IC50/EC50” value ([15]; assay number 27) was 408.5 nM and the “hKDR LANCE IC50/EC50” value ([8]; assay number 32) was over 20000 nM. The “VEGF_ADSC\ECFC Angio CD31 TubeArea IC50/EC50” value [9] was 2086.2 nM, the “GSK3b inh pretreated_Viability ATP HCT116 IC50/EC50” value ([10]; assay number 26, GSK3b inhibitor pretreated) was 242.3 nM and the “hGSK3b LANCE IC50/EC50” value ([11]; assay number 34) was over 20000 nM. For the same compound, the “hJAK2 LANCE IC50/EC50” value ([12]; assay number 33) was 18210 nM, the “Basal_Viability ATP HT-29 IC50/EC50” value ([16]; assay number 28) was 515.9 nM and the “Basal_Viability ATP SNU-C1 IC50/EC50” value ([17]; assay number 30) was 232.8 nM. The “Basal_Viability ATP DLD-1 IC50/EC50” value ([13]; assay number 23) was 650.7 nM.

`CCC1=C[C@@H]2CN(C1)Cc1c([nH]c3ccccc13)[C@@](C(=O)OC)(c1cc3c(cc1OC)N(C)[C@H]1[C@@](O)(C(=O)OC)[C@H](OC(C)=O)[C@]4(CC)C=CCN5CC[C@]31[C@@H]54)C2` [vinorelbine] was tested, and the IC50 ([2]; read-out: p70S6K1) was over 20000 nM, the IC50 [3, 21] was 96.4 nM and the IC50 ([4]; read-out: FLT3) was over 20000 nM. The EC50 ([5]; read-out: Insulin Secretion) was over 10000 nM, the IC50 [6, 22] was 342 nM and the EC50 ([7]; NCI-H716, read-out: GLP 1 Secretion) was over 10000 nM. For the same compound, the IC50 ([8]; read-out: KDR) was over 20000 nM, the IC50 ([9]; Homo sapiens, read-out: Anti-Angiogenesis) was 5.5 nM and the IC50 [10, 20] was 66.7 nM. It also gave an IC50 ([11]; read-out: GSK3b) of over 20000 nM, an IC50 ([12]; read-out: JAK2) of over 20000 nM and an EC50 [19] of 8.9 nM. The IC50 [13, 23] was 214 nM.

`Nc1nc(=S)c2[nH]cnc2[nH]1` [NCGC00263442-01] gave an IC50 ([18]; read-out: VEGF_ADSC\ECFC Angio Hoechst NucArea summarized IC50) of over 10000 nM, an IC50 ([1]; read-out: Hela CellCycMod PI 2N summarized IC50) of over 10000 nM and an IC50 ([1]; read-out: Hela CellCycMod PI 4N summarized IC50) of over 10000 nM. The IC50 ([1]; read-out: Hela CellCycMod PI Cell Number summarized IC50) was over 10000 nM, the IC50 ([1]; read-out: Hela CellCycMod PI MI summarized IC50) was over 10000 nM and the IC50 ([1]; read-out: Hela CellCycMod PI S Phase summarized IC50) was over 10000 nM. It also gave an IC50 ([2]; read-out: hp70S6K1 LANCE summarized IC50) of over 20000 nM, an IC50 ([3]; read-out: Basal_Viability ATP HCT116 summarized IC50) of 139 nM and an IC50 ([4]; read-out: hFLT3 LANCE summarized IC50) of over 20000 nM. It also gave an IC50 ([14]; read-out: Basal_Viability ATP RKO summarized IC50) of 343 nM, an IC50 ([6]; read-out: Basal_Viability ATP SW480 summarized IC50) of 402 nM and an IC50 ([15]; read-out: Basal_Viability ATP Colo 320 summarized IC50) of 373 nM. It also gave an IC50 ([8]; read-out: hKDR LANCE summarized IC50) of over 20000 nM, an IC50 ([9]; read-out: VEGF_ADSC\ECFC Angio CD31 TubeArea summarized IC50) of 622 nM and an IC50 ([10]; read-out: GSK3b inh pretreated_Viability ATP HCT116 summarized IC50) of 163 nM. The IC50 ([11]; read-out: hGSK3b LANCE summarized IC50) was over 20000 nM, the IC50 ([12]; read-out: hJAK2 LANCE summarized IC50) was over 20000 nM and the IC50 ([16]; read-out: Basal_Viability ATP HT-29 summarized IC50) was 49.3 nM. The IC50 ([17]; read-out: Basal_Viability ATP SNU-C1 summarized IC50) was 4400 nM and the IC50 ([13]; read-out: Basal_Viability ATP DLD-1 summarized IC50) was 108 nM.
